# Measured values published in US5436229A, “Bisulfite adducts of arginine aldehydes” (Eli Lilly and Company, priority 1994, dated 1995).
# Non-standard residues stand in square brackets, D forms with d. Residues, ends and D or L forms follow the SMILES beside them. dNMeCha = CN[C@H](CC1CCCCC1)C(=O)O
# Assays:
# Human plasmin = target: T1, Human plasmin (Homo sapiens, UniProt P00747); test: Serine protease inhibition (Kass), plasmin; assay type: biochemical
# T1 construct: Human plasmin is purchased from Boehringer Mannheim; purchased Boehringer Mannheim, Indianapolis, Ind
# T1 sequence (P00747 581-810 limits assumed): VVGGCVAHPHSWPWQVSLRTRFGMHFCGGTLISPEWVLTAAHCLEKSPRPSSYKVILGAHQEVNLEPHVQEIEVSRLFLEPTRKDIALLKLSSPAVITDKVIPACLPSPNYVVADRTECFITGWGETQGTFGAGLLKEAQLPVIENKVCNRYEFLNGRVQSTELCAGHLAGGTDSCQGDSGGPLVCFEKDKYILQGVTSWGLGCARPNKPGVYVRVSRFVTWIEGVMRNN
# T1 sequence (P00747 97-580 partner limits assumed): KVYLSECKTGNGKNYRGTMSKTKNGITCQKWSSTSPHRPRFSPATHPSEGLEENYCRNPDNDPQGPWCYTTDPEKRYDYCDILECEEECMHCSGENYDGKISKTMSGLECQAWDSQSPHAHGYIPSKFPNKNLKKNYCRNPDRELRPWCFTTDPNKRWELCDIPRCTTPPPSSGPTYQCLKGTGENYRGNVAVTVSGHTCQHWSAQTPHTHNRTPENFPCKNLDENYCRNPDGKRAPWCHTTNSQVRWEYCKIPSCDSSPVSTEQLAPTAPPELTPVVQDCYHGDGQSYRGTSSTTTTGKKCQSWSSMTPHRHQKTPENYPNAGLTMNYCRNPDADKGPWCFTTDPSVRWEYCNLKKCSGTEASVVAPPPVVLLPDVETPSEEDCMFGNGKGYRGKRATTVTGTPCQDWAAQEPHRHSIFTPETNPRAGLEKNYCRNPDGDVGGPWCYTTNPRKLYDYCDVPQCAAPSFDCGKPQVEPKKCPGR
# Method in brief: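 Chromogenic enzyme assays run as for human thrombin, giving association constants (Kass). Human plasmin used with H-D-Val-Leu-Lys-p-nitroanilide; t-PA (single-chain nt-PA or modified mt-PA6) with H-D-Ile-Pro-Arg-p-nitroanilide.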
# human thrombin = human thrombin (Homo sapiens, UniProt P00734); test: Thrombin amidase inhibition (Kass), chromogenic substrate; assay type: biochemical
# Method in brief: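 Purified human thrombin (8 NIH units/ml solution) mixed with compound in 50% aqueous methanol and 0.03M Tris, 0.15M NaCl, pH 7.4; chromogenic substrate (0.25 mg/ml solution) added, p-nitroaniline release followed at 405 nm. Free thrombin read from a standard curve; Kass (L/mol) is the mean over a range of compound concentrations.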
# [1] = Index of Bioavailability (plasma TT AUC, oral vs i.v.); assay type: in vivo; settings: rats, oral vs i.v. bolus
# Text: Assays are done in duplicate and averaged.
# Each sample population represents alternating sequential time points.
# [2] = target: T2, tissue plasminogen activator (t-PA) (Homo sapiens, UniProt P00750); test: Serine protease inhibition (Kass), t-PA; assay type: biochemical
# T2 construct: purchased American Diagnostica, Greenwich, Conn
# T2 sequence (P00750 36-562): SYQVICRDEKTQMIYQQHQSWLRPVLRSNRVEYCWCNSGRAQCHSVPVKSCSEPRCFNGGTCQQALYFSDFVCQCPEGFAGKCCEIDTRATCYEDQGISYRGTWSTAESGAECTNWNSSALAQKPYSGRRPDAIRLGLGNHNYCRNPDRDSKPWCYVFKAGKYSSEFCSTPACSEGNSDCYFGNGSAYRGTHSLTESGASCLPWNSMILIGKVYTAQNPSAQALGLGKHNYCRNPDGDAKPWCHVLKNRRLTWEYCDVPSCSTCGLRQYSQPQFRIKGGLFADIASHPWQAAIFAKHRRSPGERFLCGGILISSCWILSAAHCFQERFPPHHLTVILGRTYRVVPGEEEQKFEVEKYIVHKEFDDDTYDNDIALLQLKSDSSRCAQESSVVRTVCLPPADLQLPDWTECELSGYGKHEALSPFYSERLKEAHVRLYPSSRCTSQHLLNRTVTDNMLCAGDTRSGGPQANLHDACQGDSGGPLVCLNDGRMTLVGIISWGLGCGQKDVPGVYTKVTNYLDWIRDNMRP
# Bovine trypsin = target: T3, Bovine trypsin (Bos taurus, UniProt P00760); test: Serine protease inhibition (Kass), trypsin; assay type: biochemical
# T3 construct: Bovine trypsin is purchased from Worthington Biochemicals; purchased Worthington Biochemicals, Freehold, N.J
# T3 sequence (P00760 24-246): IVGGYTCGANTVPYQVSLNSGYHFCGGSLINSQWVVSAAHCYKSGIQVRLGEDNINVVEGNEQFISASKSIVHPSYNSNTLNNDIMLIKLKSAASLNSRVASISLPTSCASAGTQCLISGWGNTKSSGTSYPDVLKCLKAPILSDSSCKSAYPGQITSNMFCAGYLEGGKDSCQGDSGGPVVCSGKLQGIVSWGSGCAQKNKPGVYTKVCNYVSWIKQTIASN
# Method in brief: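 Chromogenic p-nitroanilide substrate assays run as for human thrombin; trypsin with N-Benzoyl-Phe-Val-Arg-p-nitroanilide, human factor Xa with N-Benzoyl-Ile-Glu-Gly-Arg-p-nitroanilide. Values are association constants (Kass).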
Compound,Kass Plasmin (Human plasmin) [L/mol × 10^6],Kass Human Thrombin (human thrombin) [L/mol × 10^6],Percent Relative Activity (Index of Bioavailability) [1] [%],Kass t-PA [2] [L/mol × 10^6],Kass Trypsin (Bovine trypsin) [L/mol × 10^6]
"N=C(N)NCCCC(C=O)NC(=O)C1CCCN1C(=O)C1CC2CCCCC2CN1.O=S(=O)(O)O [80 (Step F), D-3-(cis)Piq-Pro-Arg-H.H2 SO4]",1.6,56,46,0.5,183
"CN[C@H](CC1CCCCC1)C(=O)N1CCC[C@H]1C(=O)N[C@H](C=O)CCCNC(=N)N.Cl [Example 75, N-methyl-D-cyclohexylalanyl-L-Prolinyl-L-Arginine Aldehyde Hydrochloride] (H-[dNMeCha]-Pro-Arg-aldehyde)",7.7,590,13,0.37,160
